Assay results published in ChEMBL document CHEMBL2203133 (J Med Chem, 2012).
The source made the active and inactive calls. The calls are words filed in the database; no cut-off is given here.

Tests used:
[1] = Plasma concentration in BALB/c mouse at 10 mg/kg, po at 1 hr; type: ADME, organism-based; set-up: dose 10 mg/kg, route oral
[2] = molecular target: T1, Serine/threonine-protein kinase Chk1 (Homo sapiens, UniProt O14757)
T1 sequence (O14757 whole entry): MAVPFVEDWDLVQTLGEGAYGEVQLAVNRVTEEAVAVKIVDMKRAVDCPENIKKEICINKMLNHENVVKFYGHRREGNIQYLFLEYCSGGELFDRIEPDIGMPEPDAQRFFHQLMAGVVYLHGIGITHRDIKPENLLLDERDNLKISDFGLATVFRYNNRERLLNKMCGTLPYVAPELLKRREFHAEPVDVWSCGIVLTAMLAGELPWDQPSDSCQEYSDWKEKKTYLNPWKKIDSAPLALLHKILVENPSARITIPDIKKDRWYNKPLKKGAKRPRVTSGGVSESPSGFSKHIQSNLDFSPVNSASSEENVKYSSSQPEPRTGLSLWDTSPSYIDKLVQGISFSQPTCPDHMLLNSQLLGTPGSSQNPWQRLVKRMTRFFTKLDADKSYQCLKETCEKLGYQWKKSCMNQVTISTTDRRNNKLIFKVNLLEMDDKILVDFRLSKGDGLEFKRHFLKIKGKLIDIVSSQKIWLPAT

[3] = Plasma concentration in BALB/c mouse at 10 mg/kg, po at 6 hrs; type: ADME, organism-based; set-up: dose 10 mg/kg, route oral
[4] = in vitro; details: mouse, liver microsomes
[5] = Plasma concentration in BALB/c mouse at 10 mg/kg, iv at 1 hr administered as bolus dose; type: ADME, organism-based; set-up: dose 10 mg/kg, route intravenous
[6] = Plasma concentration in BALB/c mouse at 10 mg/kg, iv at 6 hrs administered as bolus dose; type: ADME, organism-based; set-up: dose 10 mg/kg, route intravenous
[7] = system: Mus musculus; assay: Clearance in BALB/c mouse at 10 mg/kg, iv and po; type: ADME, organism-based; set-up: dose 10 mg/kg, route oral; details: in vivo
[8] = species: Mus musculus; details: SW-620, 160 mg/kg
[9] = Thermodynamic solubility of the compound in water; type: physicochemical
[10] = molecular target: Cyclin-dependent kinase 1 (Homo sapiens, UniProt P06493)
[11] = system: Mus musculus; assay: Oral bioavailability in BALB/c mouse at 10 mg/kg; type: ADME, organism-based; details: in vivo
[12] = system: Caco-2; details: human
Description: Permeability across apical to basolateral side in human Caco2 cells

[13] = molecular target: Serine/threonine-protein kinase Chk2 (Homo sapiens, UniProt O96017)
[14] = system: Mus musculus; assay: Volume of distribution at steady state in BALB/c mouse at 10 mg/kg, iv and po; type: ADME, organism-based; set-up: dose 10 mg/kg, route oral; details: in vivo
[15] = system: Plasma; assay: Plasma protein binding in human; type: ADME, cell-free
[16] = Drug uptake in human SW620 cells xenografted in athymic nude mouse at 160 mg/kg, po measured at 6 to 12 hrs in presence of gemcitabine; type: ADME, organism-based, SW-620; set-up: dose 160 mg/kg, route oral; details: in vivo
[17] = molecular target: Voltage-gated inwardly rectifying potassium channel KCNH2 (Homo sapiens, UniProt Q12809)
[18] = species: Mus musculus; details: SW-620, 160 mg/kg; remark: listed apart in the source
[19] = Aqueous solubility in phosphate buffer at pH 6.5; type: physicochemical
[20] = Toxicity in po dosed mouse; type: organism-based; details: in vivo
[21] = molecular target: T2, hERG (KCNH2) (Homo sapiens, UniProt Q12809); assay: Inhibition of human ERG overexpressed in HEK cells at 11 uM; type: cell-based, HEK293; details: HEK cells overexpressing human ERG
[22] = molecular target: T2, hERG (KCNH2); assay: Inhibition of human ERG overexpressed in HEK cells at 10 uM; type: cell-based, HEK293; details: HEK cells overexpressing human ERG
[23] = system: Mus musculus; assay: Toxicity in athymic mouse xenografted with human Calu6 cells assessed as body weight loss at 100 mg/kg, iv tid for 7 days; type: organism-based, Calu-6; set-up: dose 100 mg/kg, route intravenous; details: in vivo, 168 h
[24] = system: Mus musculus; assay: Toxicity in athymic mouse xenografted with human SW620 cells assessed as body weight loss at 100 mg/kg, iv tid for 4 days; type: organism-based, SW-620; set-up: dose 100 mg/kg, route intravenous; details: in vivo, 96 h
[25] = system: SW-620; assay: Antitumor activity against human SW620 cells xenografted in athymic mouse assessed as tumor growth delay at 100 mg/kg, iv tid for 4 days (reference value: 5.3 1.3); type: functional
[26] = system: Mus musculus; assay: Toxicity in athymic mouse xenografted with human HT-29 cells assessed as body weight loss at 100 mg/kg, iv tid for 7 days; type: organism-based; set-up: dose 100 mg/kg, route intravenous; details: in vivo, 168 h
[27] = system: HT-29; assay: Antitumor activity against human HT-29 cells xenografted in athymic mouse assessed as tumor growth delay at 100 mg/kg, iv tid for 7 days (reference value: 8.8 4.8); type: functional
[28] = system: Calu-6; assay: Antitumor activity against human Calu6 cells xenografted in athymic mouse assessed as tumor growth delay at 100 mg/kg, iv tid for 7 days (reference value: 6.9 1.6); type: functional

T2 sequence (Q12809 whole entry): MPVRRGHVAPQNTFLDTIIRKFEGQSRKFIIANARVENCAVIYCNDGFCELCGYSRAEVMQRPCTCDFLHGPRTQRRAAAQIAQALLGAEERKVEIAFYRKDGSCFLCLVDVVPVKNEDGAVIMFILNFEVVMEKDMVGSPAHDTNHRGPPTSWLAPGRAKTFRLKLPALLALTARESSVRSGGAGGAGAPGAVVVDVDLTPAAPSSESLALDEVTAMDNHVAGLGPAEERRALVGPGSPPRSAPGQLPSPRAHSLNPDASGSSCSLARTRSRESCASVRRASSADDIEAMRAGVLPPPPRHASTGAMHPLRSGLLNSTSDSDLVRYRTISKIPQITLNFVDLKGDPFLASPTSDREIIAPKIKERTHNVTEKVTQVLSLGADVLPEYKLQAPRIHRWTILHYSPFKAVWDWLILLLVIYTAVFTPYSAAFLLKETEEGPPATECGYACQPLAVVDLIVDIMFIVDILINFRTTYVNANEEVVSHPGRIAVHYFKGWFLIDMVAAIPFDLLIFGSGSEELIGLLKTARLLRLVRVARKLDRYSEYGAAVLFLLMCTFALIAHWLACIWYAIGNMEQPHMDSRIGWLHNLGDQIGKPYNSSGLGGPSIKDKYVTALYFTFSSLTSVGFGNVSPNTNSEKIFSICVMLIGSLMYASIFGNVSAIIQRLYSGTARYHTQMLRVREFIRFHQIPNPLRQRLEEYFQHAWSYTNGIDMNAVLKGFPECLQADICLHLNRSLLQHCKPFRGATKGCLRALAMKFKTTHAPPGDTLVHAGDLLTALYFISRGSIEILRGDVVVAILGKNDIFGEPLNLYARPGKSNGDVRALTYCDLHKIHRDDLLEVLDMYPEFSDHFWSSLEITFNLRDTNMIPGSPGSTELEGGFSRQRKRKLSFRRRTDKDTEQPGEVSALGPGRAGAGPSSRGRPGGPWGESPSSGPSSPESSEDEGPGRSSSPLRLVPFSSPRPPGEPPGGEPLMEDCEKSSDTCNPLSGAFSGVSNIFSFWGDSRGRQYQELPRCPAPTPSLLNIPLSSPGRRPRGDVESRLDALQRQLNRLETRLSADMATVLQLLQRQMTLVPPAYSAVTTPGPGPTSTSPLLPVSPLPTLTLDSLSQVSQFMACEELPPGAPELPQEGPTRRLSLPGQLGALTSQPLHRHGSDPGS
Voltage-gated inwardly rectifying potassium channel KCNH2, sequence (Q12809 whole entry): as above
Cyclin-dependent kinase 1, sequence (P06493 whole entry): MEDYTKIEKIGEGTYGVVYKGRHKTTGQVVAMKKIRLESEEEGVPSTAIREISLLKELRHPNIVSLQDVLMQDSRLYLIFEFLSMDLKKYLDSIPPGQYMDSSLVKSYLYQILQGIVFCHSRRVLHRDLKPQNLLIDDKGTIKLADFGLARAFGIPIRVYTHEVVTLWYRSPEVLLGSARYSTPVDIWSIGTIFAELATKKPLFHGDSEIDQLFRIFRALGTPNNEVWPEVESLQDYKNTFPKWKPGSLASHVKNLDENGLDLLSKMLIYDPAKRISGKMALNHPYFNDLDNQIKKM
Serine/threonine-protein kinase Chk2, sequence (O96017 whole entry): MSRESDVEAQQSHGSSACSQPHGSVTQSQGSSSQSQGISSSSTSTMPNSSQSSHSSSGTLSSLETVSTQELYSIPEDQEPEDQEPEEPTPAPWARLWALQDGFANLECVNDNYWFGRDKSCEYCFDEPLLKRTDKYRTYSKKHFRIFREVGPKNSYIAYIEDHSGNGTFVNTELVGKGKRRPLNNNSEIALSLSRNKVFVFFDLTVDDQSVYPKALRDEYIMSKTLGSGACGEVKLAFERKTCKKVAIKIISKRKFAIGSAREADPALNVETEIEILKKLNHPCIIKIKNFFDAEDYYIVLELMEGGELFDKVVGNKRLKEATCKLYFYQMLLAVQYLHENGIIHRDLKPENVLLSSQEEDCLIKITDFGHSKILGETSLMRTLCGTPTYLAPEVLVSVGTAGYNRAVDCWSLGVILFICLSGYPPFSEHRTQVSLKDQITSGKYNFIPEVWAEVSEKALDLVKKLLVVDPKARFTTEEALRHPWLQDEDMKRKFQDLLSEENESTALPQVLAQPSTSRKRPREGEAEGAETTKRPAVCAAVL

Structure (SMILES)	concentration at 1 h [1] [nM]	IC50 [2] [µM]	concentration at 6 h [3] [nM]	metabolised at 0.5 h [4] [%]	concentration at 1 h [5] [nM]	concentration at 6 h [6] [nM]	IC50 [17] [µM]	other results
C#Cc1cnc(Nc2cnc(C#N)c(O[C@H](C)CN(C)C)n2)cc1NC	439	0.011	6	40	833	7		
CNc1cc(Nc2cnc(C#N)c(O[C@H](C)CN(C)C)n2)ncc1-c1cnn(C)c1	555		57	30	910	45	12	CL [7]: 0.132 L/h; inhibition [8]: Active; Therm_solubility [9]: 100 µg/mL; IC50 [10]: 10 µM; F [11]: 48%; permeability [12]: 8.8 ×10⁻⁶ cm/s; IC50 [13]: 3.2 µM; Vdss [14]: 0.209 L; PPB [15]: 70%; Drug uptake [16]: Active; inhibition [18]: inactive; solubility thermodynamic [19]: > 8000 µg/mL; MTD [20]: 160 mg/kg
CNc1cc(Nc2cnc(C#N)c(O[C@H]3CCNC3)n2)ncc1-c1cnn(C)c1	3		2	12	254	53		inhibition at 10 µM [22]: 37%
Nc1ccn([C@@H]2O[C@H](CO)[C@@H](O)C2(F)F)c(=O)n1 [GEMCITABINE]								Activity [23]: Non-toxic; Activity [24]: Non-toxic; Time [25]: 1.6 days; Activity [26]: Non-toxic; Time [27]: 2.3 days; Time [28]: 7.2 days
CNc1cc(Nc2cnc(C#N)c(O[C@@H]3CCNC3)n2)ncc1-c1cnn(C)c1								inhibition at 10 µM [22]: 22%
CNc1ccnc(Nc2cnc(C#N)c(O[C@H](C)CN(C)C)n2)c1		0.097						inhibition at 10 µM [22]: 71%

The next lines start with results.

concentration at 1 h [1] [nM]	IC50 [2] [µM]	concentration at 6 h [3] [nM]	metabolised at 0.5 h [4] [%]	concentration at 1 h [5] [nM]	concentration at 6 h [6] [nM]	Structure (SMILES)	IC50 [17] [µM]	other results
	0.036					CNc1cc(Nc2cnc(C#N)c(O[C@H](C)CN(C)C)n2)ncc1-c1cccc(F)c1		inhibition at 11 µM [21]: 103%
809	0.021	26	43	1040	33	CNc1cc(Nc2cnc(C#N)c(O[C@H](C)CN(C)C)n2)ncc1C(F)(F)F	1	permeability [12]: < 4.6 ×10⁻⁶ cm/s
	< 0.001					COc1cc(Nc2cnc(C#N)c(O[C@@H]3CCNC3)n2)ncc1-c1cnn(C)c1		
	0.007		49			CNc1cc(Nc2cnc(C#N)c(O[C@H](C)CN(C)C)n2)ncc1C(=O)OC	5	
	0.0088					COC(=O)c1cnc(Nc2cnc(C#N)c(O[C@@H]3CCNC3)n2)cc1N(C)C	30	
